Measurements published in patent publication US20250250299A1, “MACROCYCLIC IMMUNOMODULATORS” (Bristol-Myers Squibb Company, priority 2022, published 2025).
Where a SMILES comes first, the peptide text is derived from it. Bridges are numbered along the chain shown (N, C = ends). [ ]: non-standard residue; d: D form. The star is where a group is joined. X1 = O=C(O)CCCCCCCCCCCCCCCCC(=O)N[C@@H](CCC(=O)NCCOCCOCCOCCOCCOCCOCCOCCOCCOCCOCCOCCn1cc(C*)nn1)C(=O)O; Bip = N[C@@H](Cc1ccc(-c2ccccc2)cc1)C(=O)O; Phe(3-Me) = Cc1cccc(C[C@H](N)C(=O)O)c1; C12 diacid = O=C(O)CCCCCCCCCCC(=O)*; 4Pal = N[C@@H](Cc1ccncc1)C(=O)O; Cha = N[C@@H](CC1CCCCC1)C(=O)O; Carboxymethyl = O=C(O)C*; NMeA = CN[C@@H](C)C(=O)O; Nle = CCCC[C@H](N)C(=O)O; Orn = NCCC[C@H](N)C(=O)O; Dab = NCC[C@H](N)C(=O)O; Abu = CC[C@H](N)C(=O)O; Dap = NC[C@H](N)C(=O)O; AEEA = NCCOCCOCC(=O)O

Target: T1, human PD-1 (Jurkat-PD-1 cells; binding of PE-labeled human PD-L1-Ig) (Homo sapiens, UniProt Q15116)
T1 construct: expressed in transfected cells; host or cells: Jurkat (Jurkat-PD-1 / Jurkat-hPD-1)
T1 sequence (Q15116 25-288): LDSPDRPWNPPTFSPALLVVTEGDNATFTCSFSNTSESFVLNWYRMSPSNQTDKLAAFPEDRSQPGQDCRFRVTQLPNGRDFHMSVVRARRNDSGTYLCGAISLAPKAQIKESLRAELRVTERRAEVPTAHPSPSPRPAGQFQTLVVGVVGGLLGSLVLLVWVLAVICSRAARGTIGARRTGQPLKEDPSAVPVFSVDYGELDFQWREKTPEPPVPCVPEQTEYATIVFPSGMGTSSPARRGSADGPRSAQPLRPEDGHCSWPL
Test: Jurkat-PD-1 Cell Binding High-Content Screening Assay
Conditions: Jurkat cell line over-expressing human PD-1; compound 2 h at 37° C., then PE-labeled PD-L1-Ig 20 nM final, 1 hour; read-out: Jurkat hPD1 PDL1 IC50
Description: The ability of the compounds of formula (I) to bind to PD-1 was investigated using a Jurkat-PD-1 Cell Binding High-Content Screening Assay.
Phycoerythrin (PE) was covalently linked to the Ig epitope tag of human PD-L1-Ig and fluorescently-labeled PD-L1-Ig was used for binding studies with a Jurkat cell line over-expressing human PD-1 (Jurkat-PD-1). Briefly, 8×10^3 Jurkat-hPD-1 cells were seeded into 384 well plates in 20 μl of DIVEM supplemented with 10% fetal calf serum. 100 nl of compound was added to cells followed by incubation at 37° C. for 2 h. Then, 5 μl of PE-labeled PD-L1-Ig (20 nM final), diluted in DiVEM supplemented with 10 fetal calf serum. After 1 hour incubation, cells were fixed with […] in dPBS containing 10 µg/mL Hoechst 33342 and then washed 3× in 100 μl dPB S. Data was collected and processed using a Cell Insight NXT High Content Imager and associated software.

| IC50 [nM] | Compound |
| --- | --- |
| 380 | Cc1cccc(C[C@@H]2NC(=O)[C@H](CC(=O)O)NC(=O)[C@H](Cc3ccc(OCC(=O)O)cc3)NC(=O)[C@H](CCN)NC(=O)CSC[C@@H](C(=O)N[C@@H](CCN)C(N)=O)NC(=O)[C@H](Cc3ccc(OCc4cn(CCOCCOCCOCCOCCOCCOCCOCCOCCOCCOCCOCCNC(=O)CC[C@H](NC(=O)CCCCCCCCCCCCCCCCC(=O)O)C(=O)O)nn4)cc3)NC(=O)[C@H](C(C)C)NC(=O)[C@H](CC3CCCCC3)NC(=O)[C@H](CCN)NC(=O)[C@@H](CC(C)C)NC(=O)[C@H](CCCN)NC(=O)[C@H](Cc3ccc(OCC(=O)O)cc3)NC(=O)[C@H](Cc3ccc(-c4ccccc4)cc3)NC(=O)[C@H](Cc3ccc(OCC(=O)O)cc3)NC2=O)c1 [Compound 1012] ({CH2CO}-[Dab]Y(Carboxymethyl)D[Phe(3-Me)]Y(Carboxymethyl)[Bip]Y(Carboxymethyl)[Orn][dL][Dab][Cha]VY(X1)C[Dab]-NH2; thioether N-14) |
| 710 | Cc1cccc(C[C@@H]2NC(=O)[C@H](CC(=O)O)NC(=O)[C@H](Cc3ccc(OCc4cn(CCOCCOCCOCCOCCOCCOCCOCCOCCOCCOCCOCCNC(=O)CC[C@H](NC(=O)CCCCCCCCCCCCCCCCC(=O)O)C(=O)O)nn4)cc3)NC(=O)[C@H](CN)NC(=O)CSC[C@@H](C(=O)N[C@@H](CCN)C(N)=O)NC(=O)[C@H](CCC(=O)O)NC(=O)[C@H](C(C)C)NC(=O)[C@H](CC3CCCCC3)NC(=O)[C@H](CCN)NC(=O)[C@@H](CC(C)C)NC(=O)[C@H](CCCN)NC(=O)[C@H](Cc3ccc(OCC(=O)O)cc3)NC(=O)[C@H](Cc3ccc(-c4ccccc4)cc3)NC(=O)[C@H](Cc3ccc(OCC(=O)O)cc3)NC2=O)c1 [Compound 1008] ({CH2CO}-[Dap]Y(X1)D[Phe(3-Me)]Y(Carboxymethyl)[Bip]Y(Carboxymethyl)[Orn][dL][Dab][Cha]VEC[Dab]-NH2; thioether N-14) |
| 240 | Cc1cccc(C[C@@H]2NC(=O)[C@H](CC(=O)O)NC(=O)[C@H](Cc3ccc(OCC(=O)O)cc3)NC(=O)[C@H](CN)NC(=O)CSC[C@@H](C(=O)N[C@@H](CCN)C(N)=O)NC(=O)[C@H](Cc3ccc(OCc4cn(CCOCCOCCOCCOCCOCCOCCOCCOCCOCCOCCOCCNC(=O)CC[C@H](NC(=O)CCCCCCCCCCCCCCCCC(=O)O)C(=O)O)nn4)cc3)NC(=O)[C@H](C(C)C)NC(=O)[C@H](CC3CCCCC3)NC(=O)[C@H](CCN)NC(=O)[C@@H](CC(C)C)NC(=O)[C@H](CCCN)NC(=O)[C@H](Cc3ccc(OCC(=O)O)cc3)NC(=O)[C@H](Cc3ccc(-c4ccccc4)cc3)NC(=O)[C@H](Cc3ccc(OCC(=O)O)cc3)NC2=O)c1 [Compound 1013] ({CH2CO}-[Dap]Y(Carboxymethyl)D[Phe(3-Me)]Y(Carboxymethyl)[Bip]Y(Carboxymethyl)[Orn][dL][Dab][Cha]VY(X1)C[Dab]-NH2; thioether N-14) |
| 100 | CCCC[C@@H]1NC(=O)CSC[C@@H](C(=O)N[C@@H](CCN)C(N)=O)NC(=O)[C@H](CCC(=O)O)NC(=O)[C@H](C(C)C)NC(=O)[C@H](CC2CCCCC2)NC(=O)[C@H](CCN)NC(=O)[C@@H](CC(C)C)NC(=O)[C@H](CCCN)NC(=O)[C@H](Cc2ccc(OCC(=O)O)cc2)NC(=O)[C@H](Cc2ccc(-c3ccccc3)cc2)NC(=O)[C@H](Cc2ccc(OCc3cn(CCOCCOCCOCCOCCOCCOCCOCCOCCOCCOCCOCCNC(=O)CC[C@H](NC(=O)CCCCCCCCCCCCCCCCC(=O)O)C(=O)O)nn3)cc2)NC(=O)[C@H](Cc2cccc(C)c2)NC(=O)[C@H](CC(=O)O)NC(=O)[C@H](Cc2ccc(OCC(=O)O)cc2)NC1=O [Compound 1016] ({CH2CO}-[Nle]Y(Carboxymethyl)D[Phe(3-Me)]Y(X1)[Bip]Y(Carboxymethyl)[Orn][dL][Dab][Cha]VEC[Dab]-NH2; thioether N-14) |
| 90 | CC[C@@H]1NC(=O)CSC[C@@H](C(=O)N[C@@H](CCN)C(N)=O)NC(=O)[C@H](CCC(=O)O)NC(=O)[C@H](C(C)C)NC(=O)[C@H](CC2CCCCC2)NC(=O)[C@H](CCN)NC(=O)[C@@H](CC(C)C)NC(=O)[C@H](CCCN)NC(=O)[C@H](Cc2ccc(OCC(=O)O)cc2)NC(=O)[C@H](Cc2ccc(-c3ccccc3)cc2)NC(=O)[C@H](Cc2ccc(OCc3cn(CCOCCOCCOCCOCCOCCOCCOCCOCCOCCOCCOCCNC(=O)CC[C@H](NC(=O)CCCCCCCCCCCCCCCCC(=O)O)C(=O)O)nn3)cc2)NC(=O)[C@H](Cc2cccc(C)c2)NC(=O)[C@H](CC(=O)O)NC(=O)[C@H](Cc2ccc(OCC(=O)O)cc2)NC1=O [Compound 1017] ({CH2CO}-[Abu]Y(Carboxymethyl)D[Phe(3-Me)]Y(X1)[Bip]Y(Carboxymethyl)[Orn][dL][Dab][Cha]VEC[Dab]-NH2; thioether N-14) |
| 220 | Cc1cccc(C[C@@H]2NC(=O)[C@H](CC(=O)O)NC(=O)[C@H](Cc3ccc(OCC(=O)O)cc3)NC(=O)[C@H](CN)NC(=O)CSC[C@@H](C(=O)N[C@@H](CCN)C(=O)NCCOCCOCC(N)=O)NC(=O)[C@H]([C@@H](C)O)NC(=O)[C@H](C(C)C)NC(=O)[C@H](CC3CCCCC3)NC(=O)[C@H](CCN)NC(=O)[C@@H](CC(C)C)NC(=O)[C@H](CCCN)NC(=O)[C@H](COCc3cn(CCOCCOCCOCCOCCOCCOCCOCCOCCOCCOCCOCCNC(=O)CC[C@H](NC(=O)CCCCCCCCCCCCCCCCC(=O)O)C(=O)O)nn3)NC(=O)[C@H](Cc3ccc(-c4ccccc4)cc3)NC(=O)[C@H](Cc3ccc(OCC(=O)O)cc3)NC2=O)c1 [Compound 1042] ({CH2CO}-[Dap]Y(Carboxymethyl)D[Phe(3-Me)]Y(Carboxymethyl)[Bip]S(X1)[Orn][dL][Dab][Cha]VTC[Dab][AEEA]-NH2; thioether N-14) |
| 180 | CC(C)C[C@H]1NC(=O)[C@H](C)N(C)C(=O)[C@H](C(C)C)NC(=O)[C@H](Cc2ccc(-c3ccccc3)cc2)NC(=O)[C@H](C(C)C)NC(=O)[C@H](Cc2c[nH]c3ccccc23)NC(=O)[C@H](CC(=O)O)NC(=O)[C@H](Cc2ccncc2)NC(=O)[C@H](Cc2ccc(OCC(=O)O)cc2)NC(=O)CSC[C@@H](C(N)=O)NC(=O)[C@H](CCCCNC(=O)CCCCCCCCCCC(=O)O)NC(=O)[C@H](C(C)C)NC(=O)[C@H](CC2CCCCC2)NC(=O)[C@H](CC(N)=O)NC1=O [Compound 1045] ({CH2CO}-Y(Carboxymethyl)[4Pal]DWV[Bip]V[NMeA][dL]N[Cha]VK(C12 diacid)C-NH2; thioether N-14) |
| 140 | Cc1cccc(C[C@@H]2NC(=O)[C@H](CC(=O)O)NC(=O)[C@H](Cc3ccc(OCC(=O)O)cc3)NC(=O)[C@H]([C@@H](C)O)NC(=O)CSC[C@@H](C(=O)N[C@@H](CCN)C(N)=O)NC(=O)[C@H](CCC(=O)O)NC(=O)[C@H](C(C)C)NC(=O)[C@H](CC3CCCCC3)NC(=O)[C@H](CCN)NC(=O)[C@@H](CC(C)C)NC(=O)[C@H](CCCN)NC(=O)[C@H](Cc3ccc(OCC(=O)O)cc3)NC(=O)[C@H](Cc3ccc(-c4ccccc4)cc3)NC(=O)[C@H](Cc3ccc(OCc4cn(CCOCCOCCOCCOCCOCCOCCOCCOCCOCCOCCOCCNC(=O)CC[C@H](NC(=O)CCCCCCCCCCCCCCCCC(=O)O)C(=O)O)nn4)cc3)NC2=O)c1 [Compound 1019] ({CH2CO}-TY(Carboxymethyl)D[Phe(3-Me)]Y(X1)[Bip]Y(Carboxymethyl)[Orn][dL][Dab][Cha]VEC[Dab]-NH2; thioether N-14) |
